Experimental data taken from PMC8305076, “Comprehensive Evaluation of Biological Effects of Pentathiepins on Various Human Cancer Cell Lines and Insights into Their Mode of Action” (International Journal of Molecular Sciences, 2021).
Like-named read-outs stand apart in the source and are kept apart here.

Columns and labels:
[1] = test system: panel of 14 human cancer cell lines; assay: crystal violet proliferation assay, whole panel; type: cell-based; design: key to Antiproliferative effect: no impact (0); weak impact (+); strong impact (++); conditions: for GI50: mean over the cell line panel, normoxia, read-out: GI50 CV, mean per compound; for Antiproliferative effect: summary grade
Protocol: Distinct MTT cell viability and crystal violet cell proliferation assays were performed to assess the cytotoxicity of the compounds 1–6 on 14 human cancer cell lines. In the viability assay, cells with intact mitochondria and thus active dehydrogenases are competent to convert MTT to the corresponding insoluble formazan. The formazan can be photometrically detected after solubilization and allows for indirect conclusions about the viability of the cells as an IC50 value. In the crystal violet assay, cells are stained by the binding of the dye to the chromatin, thus allowing for a quantification of biomass that remains adherent after a treatment in comparison with a control after a specific time. Potency is defined as the growth inhibitory concentration 50% (GI50).
The antiproliferative effect of the pentathiepins on human cancer cell lines was analyzed by crystal violet assay based on the protocol of a previous publication. […] After dissolving in ethanol, the optical density was measured. Here, 1000 cells (250 for LCLC-103H) in 0.1 mL of medium were seeded per well of a 96 well plate and incubated at standard conditions for 24 h prior to treatment to allow for adhesion of the cells. A serial dilution of the test compounds was prepared in medium, covering final concentrations from 10.0 to 0.04 µM and 0.1 mL of the working solution added to each well in triplicate. Additionally, samples for each cell line were seeded and directly fixed after 24 h to measure the cell density at the beginning of treatment (t0). Fixation was performed by replacing medium with 0.1 mL of a solution containing 1% glutaraldehyde in Dulbecco’s buffer (0.2 g/L KCl, 0.1 g/L MgSO4·7 H2O, 1.55 g/L Na2HPO4·7 H2O, 0.2 g/L KH2HPO4, and 8 g/L NaCl in water) for 20 min. Plates were stored in 0.1 mL of Dulbecco’s buffer until further processing. After 96 h of treatment, the same fixation process was applied to the plates containing cells and test compounds. To stain the cells, 0.1 mL of an aqueous solution of crystal violet (0.02%) was added per well for 20 min, then discarded and the plates afterwards rinsed in clear water for 30 min. The dye was extracted in 50 µL of ethanol per well during 2 h of shaking. The plates were read at λ = 570 nm using a SpectraMax 384plus (Molecular Devices, Sunnyvale, CA, USA), and the proliferation of the treatment conditions was calculated in relation to a solvent control sample after subtracting the background value of the T0-plates. The GI50 (half-maximal growth inhibitory concentration) was calculated via nonlinear regression followed by interpolation of the dose–response graphs in Prism 7 (GraphPad, San Diego, CA, USA). […]

[2] = test system: pBR322 plasmid DNA; assay: plasmid cleavage assay; type: biochemical; design: key to DNA cleavage: no impact (0); weak impact (+); strong impact (++); conditions: for open circular DNA (single-strand breaks) / linearized plasmid (double-strand breaks): pH 7.1, 20 h, 37 °C; for DNA cleavage: summary grade
From the text: We pursued two different strategies to assess the potential of the pentathiepins to damage DNA: a simple plasmid cleavage assay and the cellular Comet assay. The former is a straightforward method to investigate whether a test compound can cleave DNA in vitro, and if so, whether single and/or double strand breaks are created, while the latter is an ex vivo assay that measures DNA fragmentation in single cells. In the plasmid cleavage assay, a single strand break would relax the supercoiled plasmid (scDNA) and lead to the detection of open circular DNA (ocDNA), whereas a double-strand break would linearize the plasmid (linDNA). An agarose gel electrophoresis enables the discrimination of the distinct plasmid conformations due to their specific electrophoretic mobilities (Figure 11a).
This assay was used to assess the cleaving ability of the pentathiepins in a cell-free setting and on the basis of procedures described in [54]. Plasmids occur in three different conformations with distinct electrophoretic mobilities that can finally be separated visualized via agarose gel electrophoresis. For each condition, 0.3 µg of pBR322 plasmid DNA was incubated with either the pentathiepin or a corresponding amount of the solvent acetonitrile. Incubations were performed in sodium phosphate buffer (50 mM) with or without GSH for 20 h at 37 °C in a water bath. Afterwards, the samples were separated by using an agarose gel (1%) run at 80 V for 2 h. Resulting bands were stained with GelRed® (Sigma-Aldrich, Taufkirchen, Germany),) and imaged and quantified via Gel-Doc EZ Imager and Image Lab (Bio-Rad, Feldkirchen, Germany), respectively. To assess the cleavage ability of the pentathiepins, we incubated the plasmid with either 5 or 25 µM of compound at a fixed concentration of GSH (2 mM). In another experiment, the amount of GSH varied between 1 µM and 10 mM, while the pentathiepin concentration was 5 µM. In contrast to the aforementioned settings where a buffer pH of 7.1 was applied, in a third attempt, the influence of different pH on the cleavage outcome was analyzed by adjusting the buffer pH to 5.1, 6.1, or 8.1 while using fixed concentrations of both test compound and GSH. Another attempt to gain insights into the cleaving mechanism was made by adding either catalase, superoxide dismutase (100 µg/mL each), or both to 5 µM pentathiepin with 2 mM GSH.

[3] = test system: HAP-1, HAP-1.KO.GPx1, Siso and A2780 cells; assay: cellular morphology after 24 h; type: cell-based, human; design: key: no impact (0); weak impact (+); strong impact (++); conditions: summary grade
From the text: All new pentathiepins induced apoptosis, although to different extents and in a cell line-dependent manner. […] In the corresponding GPx1-knockout cell line, the effect of doxorubicin was higher (about 50%), whereas only two of the pentathiepins induced apoptosis, namely, 3 and 5. The fractions of early apoptotic cells were 34 and 15%, respectively, and the population of late apoptotic cells 6% for 3. In the ovarian carcinoma cell line A2780 the overall effects were marginal, but all compounds except 6 increased the percentage of early apoptotic cells to 6–14%, with 3 resulting in the highest amount. In the Siso cell line, pentathiepin 3 increased both the number of early and late apoptotic cells to about 20%, which exceeded the effects of doxorubicine (0.5 µM). These findings were further corroborated by the observation of morphological features such as membrane blebbing and cell shrinkage as particular hallmarks of apoptosis (Figure S51).
Figure S51: Representative images of cellular morphology after an incubation for 24 h with the respective pentathiepins 1-6 (IC90) or a corresponding volume of DMF as negative control in HAP-1, HAP-1.KO.GPx1, Siso and A2780 cells. Arrows denote membrane blebbing, dashed arrows label cell shrinkage.
(1 picture or pasted object on this page, not shown here)

[4] = test system: seven cancer cell lines; assay: DCFDA flow cytometric ROS assay, acute; type: cell-based, human; conditions: 25 µM, 15 min, vs solvent control

Structure (SMILES)	GI50 ([1]; Homo sapiens)	GI50 [1]	Antiproliferative effect [1]	open circular DNA (single-strand breaks) ([2]; 5 µM, 2 mM GSH)	linearized plasmid (double-strand breaks) ([2]; 25 µM, 2 mM GSH)	open circular DNA (single-strand breaks) ([2]; 25 µM, 2 mM GSH)	DNA cleavage [2]	Morphological changes [3]	intracellular ROS levels [4]	fraction of damaged DNA ([2]; 5 µM, 2 mM GSH, no enzyme added (CAT/SOD experiment))	open circular DNA ([2]; 5 µM, 2 mM GSH, pH 5.1)	open circular DNA ([2]; 5 µM, 2 mM GSH, pH 6.1)	open circular DNA ([2]; 5 µM, 2 mM GSH, pH 8.1)	amount of broken plasmid ([2]; 5 µM, 2 mM GSH, plus 100 µg/mL CAT)	amount of broken plasmid ([2]; 5 µM, 2 mM GSH, plus 100 µg/mL SOD)	amount of broken plasmid ([2]; 5 µM, 2 mM GSH, plus CAT and SOD)	influence of buffer pH on plasmid cleavage ([2]; 5 µM, 2 mM GSH, pH 5.1 to 8.1)
CCOc1c2c(c3ccc(C(=O)N(CC)CC)cn13)SSSSS2 [Compound 4, 6-Ethoxy-N,N’-diethyl-[1,2,3,4,5]pentathiepino[6,7-a]indolizine-9-carboxamide]	322 nM		++	roughly 55%	about 4%	about 75%	++	++	burst of ROS in all cell lines								
CCOc1c2c(c3ccc(C(=O)N4CCOCC4)cn13)SSSSS2 [Compound 3, (6-Ethoxy-[1,2,3,4,5]pentathiepino[6,7-a]indolizin-9-yl)(morpholino)methanone]	170 nM	174 nM	++		about 4%	about 75%	++	++	burst of ROS in all cell lines	about 43%	45%	49%	28%	19%	29%	19%	
CCOc1c2c(c3cnc4[nH]c(-c5ccc(OC)cc5)cc4n13)SSSSS2 [Compound 1, 11-Ethoxy-2-(4-methoxyphenyl)-3H-[1,2,3,4,5]pentathiepino[6′,7′:3,4]pyrrolo[1,2-a]pyrrolo[2,3-e]pyrazine]	333 nM		++				+	0	did not change the intracellular ROS levels in any of the cell lines								a trend favoring lower pH for higher cleavage effects was observed but was not proven to be statistically significant

More lines, in order of falling GI50 ([1]; Homo sapiens), values ahead:

GI50 ([1]; Homo sapiens)	GI50 [1]	Structure (SMILES)	Antiproliferative effect [1]	open circular DNA (single-strand breaks) ([2]; 5 µM, 2 mM GSH)	linearized plasmid (double-strand breaks) ([2]; 25 µM, 2 mM GSH)	open circular DNA (single-strand breaks) ([2]; 25 µM, 2 mM GSH)	DNA cleavage [2]	Morphological changes [3]	intracellular ROS levels [4]	fraction of damaged DNA ([2]; 5 µM, 2 mM GSH, no enzyme added (CAT/SOD experiment))	open circular DNA ([2]; 5 µM, 2 mM GSH, pH 5.1)	open circular DNA ([2]; 5 µM, 2 mM GSH, pH 6.1)	open circular DNA ([2]; 5 µM, 2 mM GSH, pH 8.1)	amount of broken plasmid ([2]; 5 µM, 2 mM GSH, plus 100 µg/mL CAT)	amount of broken plasmid ([2]; 5 µM, 2 mM GSH, plus 100 µg/mL SOD)	amount of broken plasmid ([2]; 5 µM, 2 mM GSH, plus CAT and SOD)	influence of buffer pH on plasmid cleavage ([2]; 5 µM, 2 mM GSH, pH 5.1 to 8.1)
570 nM	671 nM	CCOc1c2c(c3ccc(C(=O)N4CCN(S(=O)(=O)c5ccc(C)cc5)CC4)cn13)SSSSS2 [Compound 6, (6-Ethoxy-[1,2,3,4,5]pentathiepino[6,7-a]indolizin-9-yl)(4-tosylpiperazinyl)methanone]	+				+	+	only in three of the panel								
493 nM		CCOc1c2c(c3ccc(C(=O)N4CCCCC4)cn13)SSSSS2 [Compound 2, (6-Ethoxy-[1,2,3,4,5]pentathiepino[6,7-a]indolizin-9-yl)(piperidinyl)methanone]	+		about 4%		++	+	burst of ROS in all cell lines								
267 nM		CCOc1c2c(c3ccc(C(=O)N4CCN(C(=O)c5ccc(F)cc5)CC4)cn13)SSSSS2 [Compound 5, (6-Ethoxy-[1,2,3,4,5]pentathiepino[6,7-a]indolizin-9-yl)(4-(4-fluorobenzoyl)piperazinyl)methanone]	++	roughly 55%	about 4%	about 75%	++	++	burst of ROS in all cell lines								
